Values quoted from earlier work, collected in US20190083428A1, “SALT BALANCED VAGINAL PRODUCT AND METHOD” (Good Clean Love, Inc., priority 2014, published 2019).

Experiments:
[1] = hyperosmolal concentrations
HSV-2 = conditions: after a single exposure

Row | susceptibility to HSV-2 (HSV-2) | Compound | toxicity [1] | toxicity to lactobacilli (lactobacilli)
1 | – | OCC(O)CO [glycerol] | obvious toxicity | –
2 | markedly increased susceptibility | CC(O)CO (stereo not shown) [propylene glycol] | obvious toxicity | –
3 | – | nonoxynol-9 [Example N9] | – | toxic
